# US20170157000A1, “COSMETIC PRODUCT WITH LIPOSOMAL GROWTH FACTORS” (DERMOPARTNERS, S.L., priority 2014, published 2017)
# B1: follistatin (protein, UniProt P19883 30-344, looked up)
# Follistatin: GNCWLRQAKNGRCQVLYKTELSKEECCSTGRLSTSWTEEDVNDNTLFKWMIFNGGAPNCIPCKETCENVDCGPGKKCRMNKKNKPRCVCAPDCSNITWKGPVCGLDGKTYRNECALLKARCKEQPELEVQYQGRCKKTCRDVFCPGSSTCVVDQTNNAYCVTCNRICPEPASSEQYLCGNDGVTYSSACHLRKATCLLGRSIGLAYEGKCIKAKSCEDIQCTGGKKCLWDFKVGRGRCSLCDELCPDSKSDEPVCASDNATYASECAMKEAACSSGVLLEVKHSGSCNSISEDTEEEEEDEDQDYSFPISSILEW
# notes: growth factor follistatin analyzed in free form
# Tests used:
# human fibroblasts (HSF) [1] = experiment: MTT cell proliferation assay in human fibroblasts; format: cell-based; conditions: 72 hours
# From the text: (§1) This assay is based on metabolic reduction of bromide 3-(4,5-dimethylthiazol-2-yl)-2,5-diphenyltetrazolium (MTT) carried out by the mitochondrial succinate dehydrogenase enzyme in a blue colored compound (formazan), allowing the mitochondrial functionality of the treated cells to be determined. This method has been very widely used to measure cell survival and proliferation. The quantity of live cells is proportional to the quantity of formazan produced. This method was developed by Mosmann in 1983, modified in 1986 by Francois Denizot and Rita Lang. • 1. Using trypsin, separate the cells and re-suspend them in supplemented culture medium (10% of bovine fetal serum and antibiotic). • 2. Determine the number of cells required per well using a Neubauer camera (HaCaT: 5,000 cells/96 well, 30,000 cells/24 well; HSF: 4,000 cells/96 well, 30,000 cells/24 well. • 3. Incubate at 37° C. and 5% of CO2 for 24 hours to allow for the adherence thereof. • 4. Prepare the mixtures of free and liposomated factor at the indicated concentrations, remove the medium and add the mixtures. • 5. Incubate at 37° C. and 5% of CO2 for 72 hours. • 6. Add MTT (1.9 mg/ml) in PBS solution (25 μl total) over the medium • 7. Incubate for 3 hours at 37° C. to allow for the formation of formazan crystals. • 8. Then remove the supernatant and add 100 μl of DMSO. • 9. Incubate for 30 minutes at 37° C. to allow for the formazan crystals to dissolve • 10. The optical density reading (OD) is carried out in a spectrophotometer at a wavelength of 570 nm. • The viability percentage is obtained in the following manner: % viability—DO cells treated×100/DO control cells
# [2] = test system: human keratinocytes (HaCaT); experiment: Wound healing assay (cell migration) in human keratinocytes; format: cell-based; conditions: 1 ng/ml; for wound closed more quickly than in the control cells: at 24 hours of treatment; for wound closure: at 48 hours
# From the text: (§2) The objective of the wound healing assay is the study of cell migration. It is based on observing the behavior of a confluent cell monolayer on which a hole or wound has been previously made. The cells at the border of the hole move towards the opening until new cell-cell contacts are established, thus closing the wound.
# (§3) The basic steps involve creating the wound or cell free area on the cell monolayer, the capture of images periodically during the experiment and the comparison of all the images to determine the velocity of cell migration.
# • 1. Cultivate the cells until confluence (100% approx.) in plates of 6 wells (HaCaT: 500,000 cells/6 well; HSF: 500,000 cells/6 well) • 2. Incubate at 37° C. and 5% of CO2 for 24 hours. • 3. Scaling of the wounds (2 wounds per horizontal trajectory well using yellow sterile points (P200). They are dragged along the monolayer with an angle of inclination of 30 degrees (not perpendicular to the plate) and guided with a previously marked section. Mark three points for taking measurements. • 4. Leave to rest for 15 minutes before adding the treatment. • 5. Prepare the mixtures of free and liposomated factors at a concentration of 1 ng/ml, the medium is removed and add the mixtures. • 6. Incubate at 37° C. and 5% of CO2 for 72 hours. • 7. Take measurements at the times 0, 24, 48 and 72 hours.
# The percentage of migration is obtained in the following manner:
# (§4) % migration=(time measured 0−time measured X/time measured 0)*100
# human fibroblasts (HSF) [3] = experiment: Wound healing assay (cell migration) in human fibroblasts; format: cell-based; conditions: 1 ng/ml
# From the text: as §2, §3
# • 1. Cultivate the cells until confluence (100% approx.) in plates of 6 wells (HaCaT: 500,000 cells/6 well; HSF: 500,000 cells/6 well) • 2. Incubate at 37° C. and 5% of CO2 for 24 hours. • 3. […]
# as §4
# [4] = test system: human keratinocytes (HaCaT); experiment: MTT cell proliferation assay in human keratinocytes; format: cell-based; conditions: 72 hours
# From the text: as §1
# [5] = test system: transcripts of the gene of the elastin; experiment: Induction of elastin synthesis by quantitative PCR in keratinocytes; format: cell-based, human; conditions: control = value 1, dose dependent, 72 hours
# From the text: (§5) PCR in real time or quantitative PCR is a variation of standard PCR used for quantifying DNA or messenger RNA (mRNA) of a sample. Using specific sequence primers, it is possible to determine the number of copies or the relative quantity of a determined DNA or RNA sequence.
# (§6) When PCR in real time is combined with a retro-transcription or RT reaction (RTPCR), the mRNA quantity of a sample may be determined by means of a relative quantification. Said quantification is termed relative if the relative quantity or ratio of mRNA of a specific gene is compared with respect to the mRNA quantity of a constitutive gene (endogenous control, GAPDH in this case) among different samples. This is what is termed as normalization of the specific gene expression or normalizing with respect to the different total concentration of RNA of the samples since if the quantity of endogenous control varies it is due to changes in the total RNA quantity used in the synthesis of cDNA, not to changes in its expression. For the quantification, the quantity of amplicon produced is measured in each cycle of PCR. The quantification of the product is produced by means of the addition of fluorophores which join to the amplicon in a quantitative manner such that the greater the product, the greater the fluorescence that will be emitted. […]
# [6] = test system: transcripts of the gene of the elastin; experiment: Induction of elastin synthesis by quantitative PCR in fibroblasts; format: cell-based, human; conditions: control = value 1, dose dependent, 72 hours
# From the text: as §5, §6
# IL6 transcripts = experiment: Anti-inflammatory effect by quantitative PCR after LPS, IL6 transcripts; format: cell-based, human; conditions: cells with prior inflammation induced with 200 ng/ml LPS for three hours, dose dependent
# From the text: as §5, §6
# TNFa transcripts = experiment: Anti-inflammatory effect by quantitative PCR after LPS, TNFa transcripts; format: cell-based, human; conditions: cells with prior inflammation induced with 200 ng/ml LPS for three hours, dose dependent
# From the text: as §5, §6
# [7] = concentrations greater than 1 ng/ml
# [8] = low concentrations 0.01 ng/ml-0.5 ng/ml, untreated cells = 100% proliferation
Molecule,cell proliferation (untreated cells = 100%) (human fibroblasts (HSF) [1]; concentration not given),cell proliferation (untreated cells = 100%) (human fibroblasts (HSF) [1]; [7]),wound closed more quickly than in the control cells [2] [%],wound closure [2],repair velocity of the wound versus control cells (human fibroblasts (HSF) [3]),"cell proliferation above the untreated cells [4, 7]",synthesis of elastin (elastin gene transcripts) with respect to the control cells [5],synthesis of elastin (elastin gene transcripts) with respect to the control cells [6],transcript levels of IL6 (IL6 transcripts),transcript levels of TNFa (TNFa transcripts),cell proliferation above the untreated cells (human fibroblasts (HSF) [1]; [7]),cell proliferation above the untreated cells (human fibroblasts (HSF) [1]; [8]) [%],"repair velocity of the wound, more quickly with respect to the control (human fibroblasts (HSF) [3]) [%]","cell proliferation above the untreated cells [4, 8] [%]",cell proliferation above the untreated cells (human fibroblasts (HSF) [1]; concentration of 0.5 ng/ml) [%]
Nicotiana benthamiana Sh-Polypeptide-7 [HGH free factor],around 100%,around 100%,40,completely closed,hardly any difference,around 20%,increase in the synthesis of elastin,increase in the synthesis of elastin,decrease,decrease,–,–,–,–,–
Nicotiana benthamiana Sh-Polypeptide-45 [GM-CSF free factor],–,–,13,completely closed,–,around 20%,increase in the synthesis of elastin,increase in the synthesis of elastin,decrease,decrease,around 60%,100,20,20,–
B1,–,–,–,–,–,–,–,–,–,–,maintains cell proliferation around the control,–,–,–,40
